Data on three compounds can be found in patent EP0624584B1, “Piperazine derivatives useful as calmodulin inhibitors” (DAIICHI PHARMACEUTICAL CO., LTD., priority 1993, dated 1994).

For assay [1], the system named is Nitrogen-induced Hypoxia Model in Mouse. The assay is described as follows: Activity on nitrogen-induced hypoxia model in mouse. The conditions noted are these: 30 mg/kg, p.o.; 60 minutes after administration; time to respiratory standstill over that of a control group (100%). The class given is in vivo. The protocol: Nine to ten mice per group were each orally given […] of a test compound. After 60 minutes from the administration, each mouse was put in a 500 mℓ-volume transparent container having a vent hole, and nitrogen gas was introduced into the container at a rate of 5000 mℓ/min. The time from the start of nitrogen introduction to respiratory standstill was measured, and a rate of increase of the time over that of a control group (100%) was obtained.

Assay [2] addresses calmodulin-depending cyclic nucleotide phosphodiesterase (PDE). The assay is described as follows: Calmodulin (CaM) inhibitory activity: inhibition of Ca/calmodulin-dependent PDE activity. It counts as biochemical. The conditions noted are these: concentration showing 50% inhibition of PDE activity potentiated by CaM; CaM and PDE from bovine brain, [3H]-cGMP, 30°C, 10 minutes. The protocol: The calmodulin inhibitory activity of a compound was evaluated by using its effect of inhibiting calmodulin-depending cyclic nucleotide phosphodiesterase (PDE) as an index. The assay for PDE inhibitory activity was carried out by the following procedure described by Thompson (Advances in Cyclic Nucleotide Research, 10, 69, 1979) with a modification. The first-stage incubation was carried out at 30°C for 10 minutes with the following reaction mixture: 50 mM Tris-HCl buffer (pH 7.5), 5 mM MgCl2, 1 mg/ml bovine serum albumin, CaM from bovine brain, [^3H]-cGMP, 1 mM CaCl2 or 1 mM EGTA, PDE from bovine brain, and a test compound in a total volume of 0.5 ml. After the incubation, the mixture was heated on a boiling water bath for 1 minute. Then, 50 µl of snake venom (1 mg/ml) was added to the reaction mixture and the whole mixture was incubated at 30°C for 10 minutes. After the incubation, 0.5 ml of AG1-X2 resin (1:1 slurry in water) was added to the mixture and centrifuged at 3000Xrpm for 20 min. The radioactivity of the supernatant solution was measured by a liquid scintillation counter. The IC50 value was determined as the concentration showing 50% inhibition of PDE activity potentiated by CaM.

SMILES strings stand for the structures.

Usually IC50 stands for the concentration that gives 50% inhibition. For `COc1ccc(Cn2nc(CCN3CCN(c4cccc(Cl)c4C)CC3)c3cc(OC)c(OC)cc32)cc1OC` [Example 12, 3-(2-(4-(3-Chloro-2-methylphenyl)-1-piperazinyl)-ethyl)-5 6-dimethoxy-1-(3,4-dimethoxybenzyl)-1H-indazole], in assay [1], the “Rate of Increase of Survival Time” value came to 19.2%. For the same compound, the IC50 in assay [2] is 3.1 µM.
With `NCCCCCCNS(=O)(=O)c1cccc2c(Cl)cccc12` [Example W-7, reference compound], the IC50 in assay [2] came to 33.5 µM.
In the case of `COc1cc2c(CCN3CCN(c4cccc(Cl)c4C)CC3)nn(Cc3c[nH]cn3)c2cc1OC` [Example 15, 3-(2-(4-(3-Chloro-2-methylphenyl)-1-piperazinyl)-ethyl)-5,6-dimethoxy-1-(4-imidazolylmethyl)-1H-indazole], the “Rate of Increase of Survival Time” value in assay [1] was 15.1%. The IC50 in assay [2] is 5.5 µM.
